Values quoted from earlier work, collected in patent publication US20090202626A1, “TREATMENT OF BLADDER DISEASES WITH A TLR7 ACTIVATOR” (priority 2008, published 2009).

Tests used:
[1] = test system: orthotopic bladder cancer
superficial skin cancer = conditions: in vivo

CC(C)Cn1cnc2c(N)nc3ccccc3c21 [Imiquimod, imiquimod]
mice that developed tumors ([1]; 100 μg once weekly, placebo 11 of 13 mice (85%)): 3 of 14
anti-tumor activity ([1]; orthotopic bladder cancer mouse model): potent anti-tumor activity
effect on FCB bladder tumor (FCB bladder tumor; mice): cured mice
effect on chemically induced bladder cancer (FCB bladder tumor; mouse, in vivo): inhibited
efficacy in superficial skin cancer (superficial skin cancer): demonstrated efficacy
